Experimental data: patent US20120252820A1, “METHODS OF TREATING FUNGAL INFECTIONS” (NORTHEASTERN UNIVERSITY, priority 2008, published 2012)
In brackets after ≈: the same amount, converted by molar mass.

Columns and labels:
[1] = test system: C. albicans 3153A biofilms; assay: Biofilm killing by antifungals, CFU determination; assay type: cell-based, Candida albicans; details: for killing curve of biofilm: dose-dependent, 24 hrs challenge
Protocol: (§1) Biofilms of C. albicans 3153A cells were cultured in wells of microtiter plates in RPMI medium for 48 hrs (Ramage et al., Antimicrob. Agents Chemother. 45:2475-2479 (2001)), washed twice in PBS, pH 7.4, to remove nonadherent cells, and resuspended in 100 μl RPMI growth medium containing antifungals. After 24 hrs of antifungal challenge, the biofilms and cultures were washed twice, resuspended in 100 μl PBS, scraped, transferred into eppendorf tubes, vortexed and plated for colony forming unit (CFU) determination on YPD medium. […] This could lead to an underestimation of surviving cells by a factor of ≦10. In parallel, exponentially growing and stationary planktonic cultures were grown for 48 hrs in RPMI medium, and then antifungals were added for 24 hrs. The experiment was performed in triplicate and error bars indicate standard deviation (see FIGS. 1A-1B).
Biofilms were grown in microtiter plates and were treated with amphotericin B or chlorhexidine (100 μg/ml) for 24 hrs, after which they were washed and vortexed, as discussed above. The cells were then reinoculated into microtiter plates to form new biofilms. The new biofilms, derived from persisters that survived drug treatment, were again treated with the antifungal agents (as discussed above), and the procedure was repeated a total of 3 times. Biofilms were sampled for CFU determination before and after antifungal treatment. The experiment was performed in triplicate.
Tests were also performed to determine if yeast persisters were multidrug tolerant. Mature, 48 hr biofilms of C. albicans were challenged for 24 hrs with 100 μg/ml amphotericin B, 100 μg/ml chlorhexidine, or a combination of these two antifungal agents, using the same procedures discussed above. Biofilms were washed and sampled for CFU determination before and after antifungal treatment, as discussed above.

[2] = test system: C. albicans 3153A planktonic cultures; assay: Killing of exponentially growing and stationary planktonic cultures, CFU determination; assay type: cell-based, Candida albicans; details: planktonic cultures in RPMI, antifungal 24 hrs
Protocol: as §1

[3] = test system: Biofilm-Deficient Strains of C. albicans; assay: Persister formation by biofilm-deficient strains (survival to high levels of amphotericin B); assay type: cell-based, Candida albicans
Protocol: as §1
Given that persisters appeared only in the biofilm, their formation was dependent on the same genes/pathways that determine biofilm development. A large panel of biofilm-defective mutants was therefore tested for their ability to produce persisters by measuring survival to high levels of amphotericin B. These mutants were able to adhere to the surface of a microtiter plate, making it possible to assay in the biofilm survival protocol described above. All strains appeared to produce essentially normal levels of persisters (Table 1).

C. albicans = assay: MIC; assay type: cell-based; details: Candida albicans

**Q.** Which results are given for `C[C@@H]1[C@H](O)[C@@H](C)/C=C/C=C/C=C/C=C/C=C/C=C/C=C/[C@H](O[C@@H]2O[C@H](C)[C@@H](O)[C@H](N)[C@@H]2O)C[C@@H]2O[C@](O)(C[C@@H](O)C[C@@H](O)[C@H](O)CC[C@@H](O)C[C@@H](O)CC(=O)O[C@H]1C)C[C@H](O)[C@H]2C(=O)O` [amphotericin B]?
**A.** cells invulnerable (persisters) in biofilm ([1]; biofilm, higher concentrations of the drug, 24 hrs): More than 1%; killing curve of biofilm ([1]; CFU): biphasic killing; killing of exponentially growing and stationary cells [2]: effectively killed; Persisters ([3]; strain 3153A, control wild type): +++^1 (+++ indicates 1-2% survival); Persisters ([3]; strain CAI4): +^3 (+ indicates 0.05-0.1% survival); Persisters ([3]; strain CJN698 (bcr1 with BCR1)): ++ (++ indicates 0.1-1% survival); Persisters ([3]; strain CJN702 (bcr1)): ++ (++ indicates 0.1-1% survival); Persisters ([3]; strain CKY136 (efg1)): +++ (+++ indicates 1-2% survival); Persisters ([3]; strain CKY138 (efg1 cph1Δ)): ++ (++ indicates 0.1-1% survival); Persisters ([3]; strain CKY357 (mkc1Δ)): ++^2 (++ indicates 0.1-1% survival); Persisters ([3]; strain DAY185): ++ (++ indicates 0.1-1% survival); Persisters ([3]; strain DAY286): ++ (++ indicates 0.1-1% survival); Persisters ([3]; strain GKO9 (mds3)): ++ (++ indicates 0.1-1% survival); Persisters ([3]; strain GKO443 (suv3)): ++ (++ indicates 0.1-1% survival); Persisters ([3]; strain GKO798 (kem1)): ++ (++ indicates 0.1-1% survival); Persisters ([3]; strain GKO814 (nup85)): ++ (++ indicates 0.1-1% survival); Persisters ([3]; strain MC191 (flo8/flo8)): +++ (+++ indicates 1-2% survival); Persisters ([3]; strain MC195 (flo8 with FLO8-2)): + (+ indicates 0.05-0.1% survival); Persisters ([3]; strain MC245 (flo8/FLO8)): ++ (++ indicates 0.1-1% survival)

**Q.** `CC[C@H](C)C[C@H](C)CCCCCCCCC(=O)N[C@H]1C[C@@H](O)[C@@H](NCCN)NC(=O)[C@@H]2[C@@H](O)CCN2C(=O)[C@H]([C@H](O)CCN)NC(=O)[C@H]([C@H](O)[C@@H](O)c2ccc(O)cc2)NC(=O)[C@@H]2C[C@@H](O)CN2C(=O)[C@H]([C@@H](C)O)NC1=O` [Caspofungin, caspofungin] was tested. Which killing of biofilms ([1]; C. albicans 3153A biofilms, 24 hrs antifungal challenge, CFU) did it give?
**A.** ≤ 10 fold

**Q.** What does the source list for `[H]/N=C(\N/C(=N/[H])NCCCCCCNC(=N)NC(=N)Nc1ccc(Cl)cc1)Nc1ccc(Cl)cc1` [chlorhexidine]?
**A.** concentration above which killing of persisters was observed ([1]; biofilm, 24 hrs): above 100 μg/ml; concentration at which the biofilm was completely sterilized ([1]; biofilm, 24 hrs): 1000 µg/mL; killing curve of biofilm ([1]; CFU): biphasic killing; killing of exponentially growing and stationary cells [2]: eliminated; MIC (C. albicans): 4 µg/mL (≈ 7.91 µM)
